# Source: patent US8192962B2, “Processes for detecting toxic substances” (Daikin Industries, Ltd., priority 2001, dated 2012)
# Test system: Mitochondria-located protein genes
# Test: DNA chip mRNA expression in yeast, mitochondria-located protein genes (Table 2)
# Type: cell-based, Saccharomyces cerevisiae S288C
# Conditions: cells incubated two hours with the chemical substance
# Procedure, shortened: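 Whole-genome yeast DNA chip hybridization (65° C., >12 h) of Cy-labeled cDNA from S288C cells exposed 2 h at 25° C. to a sub-lethal toxicant dose in YPD; value is intensity relative to chemical-free control.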
smiles,measurement,setting,value
"COc1cc(CNC(=O)CCCCC=CC(C)C)ccc1O [(12), 8-methyl-N-vanillyl-6-nonenamide]",The level of expressed mRNA in the presence of chemical substance/The level of expressed mRNA in the absence of chemical substance,yeast gene YAL039C,1.4
same,The level of expressed mRNA in the presence of chemical substance/The level of expressed mRNA in the absence of chemical substance,yeast gene YBL022C,0.9
same,The level of expressed mRNA in the presence of chemical substance/The level of expressed mRNA in the absence of chemical substance,yeast gene YBL030C,0.9
same,The level of expressed mRNA in the presence of chemical substance/The level of expressed mRNA in the absence of chemical substance,yeast gene YBL038W,0.7
same,The level of expressed mRNA in the presence of chemical substance/The level of expressed mRNA in the absence of chemical substance,yeast gene YBL099W,1.0
same,The level of expressed mRNA in the presence of chemical substance/The level of expressed mRNA in the absence of chemical substance,yeast gene YBR003W,0.8
same,The level of expressed mRNA in the presence of chemical substance/The level of expressed mRNA in the absence of chemical substance,yeast gene YBR044C,0.8
same,The level of expressed mRNA in the presence of chemical substance/The level of expressed mRNA in the absence of chemical substance,yeast gene YBR091C,0.8
same,The level of expressed mRNA in the presence of chemical substance/The level of expressed mRNA in the absence of chemical substance,yeast gene YBR122C,0.7
same,The level of expressed mRNA in the presence of chemical substance/The level of expressed mRNA in the absence of chemical substance,yeast gene YBR185C,0.7
same,The level of expressed mRNA in the presence of chemical substance/The level of expressed mRNA in the absence of chemical substance,yeast gene YBR221C,1.3
same,The level of expressed mRNA in the presence of chemical substance/The level of expressed mRNA in the absence of chemical substance,yeast gene YBR251W,1.1
same,The level of expressed mRNA in the presence of chemical substance/The level of expressed mRNA in the absence of chemical substance,yeast gene YBR282W,0.8
same,The level of expressed mRNA in the presence of chemical substance/The level of expressed mRNA in the absence of chemical substance,yeast gene YCL057W,1.0
same,The level of expressed mRNA in the presence of chemical substance/The level of expressed mRNA in the absence of chemical substance,yeast gene YCR046C,1.1
same,The level of expressed mRNA in the presence of chemical substance/The level of expressed mRNA in the absence of chemical substance,yeast gene YCR083W,1.1
same,The level of expressed mRNA in the presence of chemical substance/The level of expressed mRNA in the absence of chemical substance,yeast gene YDL067C,1.0
same,The level of expressed mRNA in the presence of chemical substance/The level of expressed mRNA in the absence of chemical substance,yeast gene YDL181W,0.9
same,The level of expressed mRNA in the presence of chemical substance/The level of expressed mRNA in the absence of chemical substance,yeast gene YDL198C,1.2
same,The level of expressed mRNA in the presence of chemical substance/The level of expressed mRNA in the absence of chemical substance,yeast gene YDR079W,1.1
same,The level of expressed mRNA in the presence of chemical substance/The level of expressed mRNA in the absence of chemical substance,yeast gene YDR178W,1.3
same,The level of expressed mRNA in the presence of chemical substance/The level of expressed mRNA in the absence of chemical substance,yeast gene YDR231C,1.1
same,The level of expressed mRNA in the presence of chemical substance/The level of expressed mRNA in the absence of chemical substance,yeast gene YDR258C,1.8
same,The level of expressed mRNA in the presence of chemical substance/The level of expressed mRNA in the absence of chemical substance,yeast gene YDR298C,1.1
same,The level of expressed mRNA in the presence of chemical substance/The level of expressed mRNA in the absence of chemical substance,yeast gene YDR347W,0.8
same,The level of expressed mRNA in the presence of chemical substance/The level of expressed mRNA in the absence of chemical substance,yeast gene YDR377W,0.9
same,The level of expressed mRNA in the presence of chemical substance/The level of expressed mRNA in the absence of chemical substance,yeast gene YDR529C,0.6
same,The level of expressed mRNA in the presence of chemical substance/The level of expressed mRNA in the absence of chemical substance,yeast gene YEL024W,0.8
same,The level of expressed mRNA in the presence of chemical substance/The level of expressed mRNA in the absence of chemical substance,yeast gene YEL039C,0.6
same,The level of expressed mRNA in the presence of chemical substance/The level of expressed mRNA in the absence of chemical substance,yeast gene YER178W,1.3
same,The level of expressed mRNA in the presence of chemical substance/The level of expressed mRNA in the absence of chemical substance,yeast gene YFL016C,1.0
same,The level of expressed mRNA in the presence of chemical substance/The level of expressed mRNA in the absence of chemical substance,yeast gene YGL018C,1.0
same,The level of expressed mRNA in the presence of chemical substance/The level of expressed mRNA in the absence of chemical substance,yeast gene YGL187C,0.8
same,The level of expressed mRNA in the presence of chemical substance/The level of expressed mRNA in the absence of chemical substance,yeast gene YGL191W,0.9
same,The level of expressed mRNA in the presence of chemical substance/The level of expressed mRNA in the absence of chemical substance,yeast gene YGR008C,2.0
same,The level of expressed mRNA in the presence of chemical substance/The level of expressed mRNA in the absence of chemical substance,yeast gene YGR028W,1.5
same,The level of expressed mRNA in the presence of chemical substance/The level of expressed mRNA in the absence of chemical substance,yeast gene YGR062C,1.0
same,The level of expressed mRNA in the presence of chemical substance/The level of expressed mRNA in the absence of chemical substance,yeast gene YGR076C,1.0
same,The level of expressed mRNA in the presence of chemical substance/The level of expressed mRNA in the absence of chemical substance,yeast gene YGR082W,0.8
same,The level of expressed mRNA in the presence of chemical substance/The level of expressed mRNA in the absence of chemical substance,yeast gene YGR174C,0.9
same,The level of expressed mRNA in the presence of chemical substance/The level of expressed mRNA in the absence of chemical substance,yeast gene YGR244C,1.9
same,The level of expressed mRNA in the presence of chemical substance/The level of expressed mRNA in the absence of chemical substance,yeast gene YHR008C,0.7
same,The level of expressed mRNA in the presence of chemical substance/The level of expressed mRNA in the absence of chemical substance,yeast gene YIL155C,1.4
same,The level of expressed mRNA in the presence of chemical substance/The level of expressed mRNA in the absence of chemical substance,yeast gene YJL096W,1.0
same,The level of expressed mRNA in the presence of chemical substance/The level of expressed mRNA in the absence of chemical substance,yeast gene YJL102W,0.8
same,The level of expressed mRNA in the presence of chemical substance/The level of expressed mRNA in the absence of chemical substance,yeast gene YJL133W,0.8
same,The level of expressed mRNA in the presence of chemical substance/The level of expressed mRNA in the absence of chemical substance,yeast gene YJL166W,0.7
same,The level of expressed mRNA in the presence of chemical substance/The level of expressed mRNA in the absence of chemical substance,yeast gene YJL180C,0.8
same,The level of expressed mRNA in the presence of chemical substance/The level of expressed mRNA in the absence of chemical substance,yeast gene YJR045C,1.0
same,The level of expressed mRNA in the presence of chemical substance/The level of expressed mRNA in the absence of chemical substance,yeast gene YJR077C,1.0
